# Test results as given in patent US5731334A, “Method for treating cancer using taxoid onium salt prodrugs” (priority 1995, dated 1998).
# Experiments:
# [1] = tested on: M-24 metastatic melanoma cells; assay: XTT dye binding cytotoxicity assay, M-24; format: cell-based; conditions: Homo sapiens, M24; M-24, melanoma-metastatic; 72 h; read-out: IC50
# Procedure: (§1) All cell lines described herein were obtained from the ATCC and maintained in media formulations as recommended by the supplier. The cell lines were tested for mycoplasma contamination prior to incubation at 37° C. in 5% carbon dioxide. Normal human dermal fibroblasts, peripheral blood lymphoblasts and mammary epithelial cells were obtained from Clonogenic Cor., San Diego, Calif. and were maintained under the above incubation conditions in special media provided by the supplier.
# (§2) Antiproliferative activities of the onium salts were determined using the XTT dye binding assay. Cells were harvested with trypsin/EDTA (Irvine Scientific), washed, resuspended in the appropriate medium, and counted in a hemocytometer using Trypan Blue to determine viability. Then 10^4 cells/well were added to 96 well microtiter plates and incubated for 24 hours before addition of drug at concentrations in the range of 10^-4 to 10^-13 molar by direct addition from DMSO solutions. After 72 hours, XTT binding dye was added and incubation was continued for 4 hours. The inhibition of cell proliferation was quantified using a Molecular Devices Microplate Reader. The absorbance of XTT was measured at […]. The concentration of drug which inhibited growth of cells by 50% was calculated from duplicated determinations.
# SK-Mel-28 melanoma cells = assay: XTT dye binding cytotoxicity assay, SK-Mel-28; format: cell-based; conditions: Homo sapiens; SK-Mel-28, melanoma; 72 h; read-out: IC50
# Procedure: as §1, §2
# [2] = tested on: UCLA-P3 lung carcinoma cells; assay: XTT dye binding cytotoxicity assay, UCLA-P3; format: cell-based; conditions: Homo sapiens, UCLA P-3, 72 h
# Procedure: as §1, §2
# [3] = tested on: Capan 1 pancreas cancer cells; assay: XTT dye binding cytotoxicity assay, Capan 1; format: cell-based; conditions: Homo sapiens; Capan 1, pancreas cancer; 72 h; read-out: IC50
# Procedure: as §1, §2
# [4] = tested on: HT-29 colon carcinoma cells; assay: XTT dye binding cytotoxicity assay, HT-29; format: cell-based; conditions: Homo sapiens; HT-29, colon carcinoma; 72 h; read-out: IC50
# Procedure: as §1, §2
# [5] = tested on: OVCAR-3 ovarian carcinoma cells; assay: XTT dye binding cytotoxicity assay, OVCAR-3; format: cell-based; conditions: Homo sapiens; OVCAR-3, ovarian carcinoma; 72 h; read-out: IC50
# Procedure: as §1, §2
# [6] = tested on: SK-N-SH neuroblastoma cells; assay: XTT dye binding cytotoxicity assay, SK-N-SH; format: cell-based; conditions: Homo sapiens, neuroblastoma, 72 h, read-out: IC50
# Procedure: as §1, §2
# [7] = tested on: 786-0 renal cell carcinoma cells; assay: XTT dye binding cytotoxicity assay, 786-0; format: cell-based; conditions: Homo sapiens; 786-0, renal cell carcinoma; 72 h; read-out: IC50
# Procedure: as §1, §2
# [8] = tested on: PC-3 prostate carcinoma cells; assay: XTT dye binding cytotoxicity assay, PC-3; format: cell-based; conditions: Homo sapiens, 72 h
# Procedure: as §1, §2
# [9] = tested on: Molt-4 T-cell leukemia cells; assay: XTT dye binding cytotoxicity assay, Molt-4; format: cell-based; conditions: Homo sapiens; Molt-4, T-cell leukemia; 72 h; read-out: IC50
# Procedure: as §1, §2
# [10] = tested on: HL-60 promyelocytic leukemia cells; assay: XTT dye binding cytotoxicity assay, HL-60; format: cell-based; conditions: Homo sapiens; HL-60, promyelocytic leukemia; 72 h; read-out: IC50
# Procedure: as §1, §2
# L-1210 leukemia cells = assay: XTT dye binding cytotoxicity assay, L-1210; format: cell-based, mouse; conditions: L1210; L-1210, mouse leukemia; 72 h; read-out: IC50
# Procedure: as §1, §2
# [11] = tested on: CHO Chinese hamster ovary cells; assay: XTT dye binding cytotoxicity assay, CHO; format: cell-based; conditions: Cricetulus griseus; CHO, Chinese hamster ovary (untransformed); 72 h; read-out: IC50
# Procedure: as §1, §2
# [12] = tested on: HMEC mammary epithelial cells; assay: XTT dye binding cytotoxicity assay, HMEC; format: cell-based; conditions: Homo sapiens, mammary epithelial cells (untransformed), 72 h, read-out: IC50
# Procedure: as §1, §2
# NHDF dermal fibroblast = assay: XTT dye binding cytotoxicity assay, NHDF; format: cell-based; conditions: Homo sapiens, dermal fibroblast (untransformed), 72 h, read-out: IC50
# Procedure: as §1, §2
# tubulin = assay: Tubulin polymerization-depolymerization (microtubule assembly-disassembly) assay; format: biochemical, calf
# human tumor xenografts = assay: In vivo antitumor effect (human tumor xenografts in nude mice)
# [13] = In vivo elimination in BALB/C mice; conditions: 24 hours after injection
# Procedure: C-2'-MPA-Taxol (1 mM in 0.9% saline solution, 400 μL) was injected along with tritiated taxol at 32000 cpm into normal BALB/C mice (4 mice each) housed in metabolic cages and the urine and feces were measured periodically in a scintillation counter using Achillea scintillation fluid.
# The antitumor activity of the onium salts of taxol were assessed in nude mice bearing tumors of human A-549 lung adenocarcinomas, Ovcar-3 ovarian carcinoma, and PC-3 prostate carcinoma cells. […] FIG. 5 illustrates antiproliferation results for 2'-MPA-3-thiophene-taxol (4) and 2' MPA taxol (2) for the Ovcar-3 human tumor xenograft. […] FIG. 6, summarizes the results for a PC-3, prostate tumor model study. Taxol was compared with both the 2'- and 7-substituted oxonium salts. […] Tritiated taxol and 2' MPA-taxol were used in drug elimination experiments in normal BALB/C mice. In both groups of mice of four animals each, only 4-5% of the administered radioactivity was measured in the combined urine and feces 24 hours after injection.
# [14] = Stability in water, assay medium and storage solution; format: physicochemical
# From the text: used and differing ultraviolet absorption maxima between the prodrug and the drug, the stability was easily assayed using UV detection. In all the ensuing studies, the only degradation products detected were the taxoids and the pyridinone that results from the hydrolysis of the onium salts. In water, these compounds show surprising stability for up to weeks depending upon the storage conditions. […] The fraction of ethyl acetated extractable material was between 18 and 23% for all onium salts and 95% for the present compounds.
# FIG. 2 illustrates the results of GTP induced polymerization and calcium chloride induced depolymerization of tubulin in the presence of taxol and the 2'- and 7-MPA substituted derivatives.
# tumor cell lines = assay: Cytotoxicity, summary over tumor cell lines (XTT); format: cell-based, human and murine; conditions: on average
# Procedure: Antiproliferative activities of the onium salts were determined using the XTT dye binding assay. Cells were harvested with trypsin/EDTA (Irvine Scientific), washed, resuspended in the appropriate medium, and counted in a hemocytometer using Trypan Blue to determine viability. […] After 72 hours, XTT binding dye was added and incubation was continued for 4 hours. The inhibition of cell proliferation was quantified using a Molecular Devices Microplate Reader. […] The concentration of drug which inhibited growth of cells by 50% was calculated from duplicated determinations.
# [15] = tested on: Ovcar 3 ovarian carcinoma tumor xenograft
# Procedure: (§3) Athymic nude mice were purchased from Harlan-Sprague-Dawley. The animals were housed in microisolated cases under positive air pressure and all manipulations and drug treatments were performed in a laminar flow cabinet. Tumor cells were grown under the above tissue culture conditions. Cell suspensions in RPMI medium were injected S./C. Treatment was started one day after inoculation by i.p. injection of 400 μl drug solutions. Tumors were measured 3 times weekly in two dimensions, using calipers and tumor volume as calculated using the formula (V=w^2 ×L×(3.142).
# The tumor model was generated from an ATTC Ovcar 3 carcinoma cell line that was maintained under standard cell proliferation conditions, viz. 37° C., 5% carbon dioxide in sterile air. Each cohort was comprised of eight randomly chosen female athymic nude mice, for a total population size of twenty four. Hemocytometer counted cells, suspended in Hanks medium (Gibco, Grand Island N.Y.) were implanted S.C. (10^6 cells in 0.4 mL per mouse). Solid tumor growth was measured on each third day. Equimolar amounts of the test compounds (1.0 mM, 400 μL) were injected i.p. on days 1, 3, 5, 7, 9, and 11 using the following media:
# (.quadrature.): Control, saline in 5× distilled water (D5W) […]
# [16] = tested on: PC-3 prostate carcinoma tumor xenograft; conditions: in vivo
# Procedure: as §3
# The tumor model was generated from an ATTC PC-3 prostate carcinoma cell line that was maintained under standard cell proliferation conditions, viz. 37° C., 5% carbon dioxide in sterile air. Each cohort was comprised of eight randomly chosen female athymic nude mice, for a total population size of twenty four. Hemocytometer counted cells, suspended in Hanks mediun (Gibco, Grand Island N.Y.) were implanted S.C. (10^6 cells in 0.4 mL per mouse). Solid tumor growth was measured on each third day. Equimolar amounts of the test compounds (1.0 mM, 400 μL) were injected i.p. on days 1, 3, 5, 7, 9, and 11 using the following media:
# (.smallcircle.): Control, 5% dextrose in 5× distilled water (5 DW)
# (Δ): Taxol (18.0 mg/kg of animal weight or approximately 1.260 mg/m^2) suspended in Cremaphor/D5W
# Inferences about efficacy were drawn by ANOVA followed by protected t-test. […] Data shown as mean value with standard error.
# [17] = tested on: A549 lung adenocarcinoma tumor xenograft; assay: Human lung adenocarcinoma A549 xenograft in nude mice; conditions: 1.0 mM, 400 μL i.p. days 1, 3, 5, 7, 9, 11
# Procedure: as §3
# The tumor model was generated from A549 cell line, an ATTC that was maintained under standard cell proliferation conditions (37° C., 5% carbon dioxide in sterile air). Each cohort was comprised of six randomly chosen female athymic nude mice, for a total population size of twenty four mice. Hemocytometer counted cells, suspended in Hanks mediun (Gibco, Grand Island N.Y.) were implated S.C. (10^6 cells in 0.4 mL per mouse). Solid tumor growth was measured on each third day. Equimolar amounts of the test compounds (1.0 mM, 400 μL) were injected i.p. on days 1, 3, 5, 7, 9, and 11 using the following media:
# (Δ): Control, saline in 5× distilled water (5 DW)
# (.smallcircle.): Taxol (18.0 mg/kg of animal weight or approximately 1,260 mg/m^2) suspended in Cremaphor/D5W […]
# [18] = Toxicity and survival in vivo (tumor bearing nude mice)
# [19] = Plasma stability and prodrug reversion (ethyl acetate extraction, HPLC); conditions: human, plasma
compound,measurement,setting,value
CC(=O)O[C@H]1C(=O)[C@@]2(C)[C@H]([C@H](OC(=O)c3ccccc3)[C@]3(O)C[C@H](OC(=O)[C@H](Oc4cccc[n+]4C)[C@@H](NC(=O)c4ccccc4)c4ccccc4)C(C)=C1C3(C)C)[C@]1(OC(C)=O)CO[C@@H]1C[C@@H]2O [Compound 2],IC50,[1],0.35 nM
same,IC50,SK-Mel-28 melanoma cells,87.9 nM
same,IC50,[2],2.44 nM
same,IC50,[3],5.7 nM
same,IC50,[4],1.94 nM
same,IC50,[5],7.49 nM
same,IC50,[6],3.19 nM
same,IC50,[7],27.4 nM
same,IC50,[8],6.47 nM
same,IC50,[9],7.07 nM
same,IC50,[10],0.25 nM
same,IC50,L-1210 leukemia cells,12.8 nM
same,IC50,[11],214 nM
same,IC50,[12],127 nM
same,IC50,NHDF dermal fibroblast,377 nM
same,tubulin binding in words,tubulin,no tubulin binding
same,reversal to tubulin (calcium induced depolymerization),"tubulin; CaCl2, 10^-6 M drug",about 70%
same,in vivo antitumor efficacy in words,human tumor xenografts,produced tumor regression with a high percentage of animals being free of measurable tumor masses at the end of the experiments
same,administered radioactivity in the combined urine and feces,[13],4-5%
same,storage stability,[14]; 1-2% Tween #80 or Tween #20 with or without ethyl alcohol,stable and may stored without significant loss
same,stability under the assembly-disassembly conditions,[14]; HPLC analysis,completely stable
same,cytotoxicity relative to the C-7-isomer (3),tumor cell lines,about 10 fold
same,"tumor growth inhibition, Ovcar-3","[15]; 1.0 mM, 400 μL i.p. days 1, 3, 5, 7, 9, 11",complete inhibition of tumor growth
same,"survival of animals, Ovcar-3",[15]; in vivo,100%
same,"mice surviving treatment, PC-3",[16],all of the mice given either the 2'- or 7-isomers survived
same,"tumor growth inhibition, A549",[17],inhibited tumor growth nearly completely
same,Toxicity,"[18]; Table II, in vivo",low
same,% survival,[18]; at end of experiments,100%
same,in vivo tolerance / toxicity in words,[18]; nude mice,"well tolerated, showing no visible toxic side effects and no significant weight loss"
same,half-life,[19],2.4 min
same,recovery,[19],21%
